Measurements: BindingDB's records for doi:10.7270/Q2T72FW8 (Broad Institute, 2010)
pEC50: −log10 of the molar value.

Target: T1, S-ribosylhomocysteine lyase (Vibrio harveyi, UniProt B0LUE4)
T1 sequence (B0LUE4 whole entry): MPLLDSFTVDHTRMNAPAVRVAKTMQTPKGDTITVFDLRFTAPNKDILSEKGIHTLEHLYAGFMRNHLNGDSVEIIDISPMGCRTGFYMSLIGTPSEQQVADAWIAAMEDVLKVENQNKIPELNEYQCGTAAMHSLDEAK
Experiment: bacterial growth suppression, V. harveyi cultures – absorbance, dose retest, counter-screen for AI-2 quorum sensing modulator project, confirmation (AID 2725)

CCCc1ccc(S(=O)(=O)N(C)S(=O)(=O)c2ccc(F)cc2)cc1 [N-(4-fluorophenyl)sulfonyl-N-methyl-4-propylbenzenesulfonamide]
pEC50: 5.34

C=Cn1c(C(=O)O)ccc1-c1ccc(CC)cc1
pEC50: < 3.80

Cc1cccc(NS(=O)(=O)c2ccc(Oc3ccccc3)cc2)n1 [SMR000071466]
pEC50: < 3.80

CCc1ccc(S(=O)(=O)Nc2ccc(Br)cn2)cc1 [MLS001211346]
pEC50: < 3.80

COc1cc(NC(=O)CN2C(=O)NC(c3ccccc3)(c3ccccc3)C2=O)cc(OC)c1 [MLS001176525]
pEC50: 4.86

CN(C)S(=O)(=O)c1ccc(NC(=S)NC(=O)Cc2ccccc2)cc1 [N-[[4-(dimethylsulfamoyl)phenyl]carbamothioyl]-2-phenyl-ethanamide]
pEC50: < 3.80

Cn1cnc(S(=O)(=O)Nc2ccc(OC(F)(F)F)cc2)c1 [SMR000314513]
pEC50: < 3.80
